# Experiments:
# Experiment in all cases: Kinome-wide inhibition profiling
# Assay type in all cases: biochemical
# WNK2 = target: T1, WNK2 (Homo sapiens, UniProt Q9Y3S1)
# T1 construct: purchased Reaction Biology Corp
# Method: (§1) In vitro CDK12/cyclinK assays for all compounds and in vitro kinome-wide inhibition profiling of 30d at 10 μM were performed by a CRO company (Reaction Biology Corp., San Diego, CA, USA).
# CDK2/cyclinA = target: T2, CDK2/cyclinA (Homo sapiens, UniProt P24941)
# T2 construct: purchased Reaction Biology Corp
# Method: as §1
# NDR1 = target: T3, NDR1 (Homo sapiens, UniProt Q15208)
# T3 construct: purchased Reaction Biology Corp
# Method: as §1
# DAPK1 = target: T4, DAPK1 (Homo sapiens, UniProt P53355)
# T4 construct: purchased Reaction Biology Corp
# Method: as §1
# LIMK1 = target: T5, LIMK1 (Homo sapiens, UniProt P53667)
# T5 construct: purchased Reaction Biology Corp
# Method: as §1
# KSR1 = target: T6, KSR1 (Homo sapiens, UniProt Q8IVT5)
# T6 construct: purchased Reaction Biology Corp
# T6 sequence (Q8IVT5 whole entry): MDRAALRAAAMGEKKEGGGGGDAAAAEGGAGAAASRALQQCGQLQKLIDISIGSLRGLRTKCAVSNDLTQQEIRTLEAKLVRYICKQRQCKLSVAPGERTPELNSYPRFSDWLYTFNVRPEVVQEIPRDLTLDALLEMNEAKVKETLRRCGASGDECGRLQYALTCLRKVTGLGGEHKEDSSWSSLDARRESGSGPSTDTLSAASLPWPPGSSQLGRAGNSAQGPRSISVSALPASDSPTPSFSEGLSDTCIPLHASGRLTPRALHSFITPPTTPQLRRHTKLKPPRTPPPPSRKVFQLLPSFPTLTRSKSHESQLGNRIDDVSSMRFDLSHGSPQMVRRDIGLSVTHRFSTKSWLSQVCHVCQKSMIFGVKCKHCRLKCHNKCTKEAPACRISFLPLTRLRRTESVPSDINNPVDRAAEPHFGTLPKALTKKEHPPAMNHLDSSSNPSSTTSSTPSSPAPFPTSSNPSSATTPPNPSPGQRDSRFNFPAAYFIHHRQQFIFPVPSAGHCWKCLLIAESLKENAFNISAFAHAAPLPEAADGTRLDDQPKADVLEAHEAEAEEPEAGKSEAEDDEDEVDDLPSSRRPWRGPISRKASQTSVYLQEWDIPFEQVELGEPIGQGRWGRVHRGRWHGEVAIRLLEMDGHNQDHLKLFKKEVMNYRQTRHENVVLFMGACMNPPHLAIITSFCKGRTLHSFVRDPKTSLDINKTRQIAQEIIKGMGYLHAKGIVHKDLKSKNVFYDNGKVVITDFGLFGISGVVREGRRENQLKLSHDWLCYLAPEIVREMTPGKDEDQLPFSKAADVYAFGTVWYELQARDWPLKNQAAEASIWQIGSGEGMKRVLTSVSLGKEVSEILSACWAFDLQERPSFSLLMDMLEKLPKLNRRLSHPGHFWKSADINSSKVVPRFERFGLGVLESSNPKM
# Method: as §1
# RSK2 = target: T7, RSK2 (Homo sapiens, UniProt P51812)
# T7 construct: purchased Reaction Biology Corp
# Method: as §1
# PRKD3 = target: T8, PRKD3 (Homo sapiens, UniProt O94806)
# T8 construct: purchased Reaction Biology Corp
# Method: as §1
# CSNK1E = target: T9, CSNK1E (Homo sapiens, UniProt P49674)
# T9 construct: purchased Reaction Biology Corp
# Method: as §1
# CAMK1b = target: T10, CAMK1b (Homo sapiens, UniProt Q6P2M8)
# T10 construct: purchased Reaction Biology Corp
# Method: as §1
# TBK1 = target: T11, TBK1 (Homo sapiens, UniProt Q9UHD2)
# T11 construct: purchased Reaction Biology Corp
# Method: as §1
# SNRK = target: T12, SNRK (Homo sapiens, UniProt Q9NRH2)
# T12 construct: purchased Reaction Biology Corp
# Method: as §1
# TEC = target: T13, TEC (Homo sapiens, UniProt P42680)
# T13 construct: purchased Reaction Biology Corp
# T13 sequence (P42680 whole entry): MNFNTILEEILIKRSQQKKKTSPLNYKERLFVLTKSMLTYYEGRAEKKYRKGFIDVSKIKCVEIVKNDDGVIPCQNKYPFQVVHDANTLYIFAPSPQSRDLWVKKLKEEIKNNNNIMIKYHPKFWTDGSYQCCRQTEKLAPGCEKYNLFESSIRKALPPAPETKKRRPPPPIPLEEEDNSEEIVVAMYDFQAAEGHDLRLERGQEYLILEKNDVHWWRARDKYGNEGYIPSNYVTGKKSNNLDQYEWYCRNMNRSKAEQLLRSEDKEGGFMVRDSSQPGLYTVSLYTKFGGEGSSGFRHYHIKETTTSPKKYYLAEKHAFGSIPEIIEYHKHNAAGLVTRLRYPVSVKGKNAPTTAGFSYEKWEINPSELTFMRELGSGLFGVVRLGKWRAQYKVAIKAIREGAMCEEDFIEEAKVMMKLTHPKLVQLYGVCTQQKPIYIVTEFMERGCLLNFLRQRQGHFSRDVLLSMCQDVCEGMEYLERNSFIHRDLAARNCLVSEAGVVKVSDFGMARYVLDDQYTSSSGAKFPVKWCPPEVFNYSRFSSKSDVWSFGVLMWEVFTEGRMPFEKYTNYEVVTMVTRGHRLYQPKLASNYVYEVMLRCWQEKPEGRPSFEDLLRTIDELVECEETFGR
# Method: as §1
# GRK7 = target: T14, GRK7 (Homo sapiens, UniProt Q8WTQ7)
# T14 construct: purchased Reaction Biology Corp
# Method: as §1
# CDK3/cyclinE = target: T15, CDK3/cyclinE (Homo sapiens, UniProt Q00526)
# T15 construct: purchased Reaction Biology Corp
# T15 sequence (Q00526 whole entry): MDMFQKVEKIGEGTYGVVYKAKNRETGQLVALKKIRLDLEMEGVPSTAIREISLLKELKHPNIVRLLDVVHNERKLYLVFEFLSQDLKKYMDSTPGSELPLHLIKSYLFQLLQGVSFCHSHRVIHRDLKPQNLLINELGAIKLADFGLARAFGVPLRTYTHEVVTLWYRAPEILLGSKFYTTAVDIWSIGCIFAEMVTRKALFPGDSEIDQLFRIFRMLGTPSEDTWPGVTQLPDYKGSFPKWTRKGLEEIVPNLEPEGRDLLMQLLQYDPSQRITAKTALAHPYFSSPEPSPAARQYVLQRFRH
# T15 sequence (P24864 whole entry partner): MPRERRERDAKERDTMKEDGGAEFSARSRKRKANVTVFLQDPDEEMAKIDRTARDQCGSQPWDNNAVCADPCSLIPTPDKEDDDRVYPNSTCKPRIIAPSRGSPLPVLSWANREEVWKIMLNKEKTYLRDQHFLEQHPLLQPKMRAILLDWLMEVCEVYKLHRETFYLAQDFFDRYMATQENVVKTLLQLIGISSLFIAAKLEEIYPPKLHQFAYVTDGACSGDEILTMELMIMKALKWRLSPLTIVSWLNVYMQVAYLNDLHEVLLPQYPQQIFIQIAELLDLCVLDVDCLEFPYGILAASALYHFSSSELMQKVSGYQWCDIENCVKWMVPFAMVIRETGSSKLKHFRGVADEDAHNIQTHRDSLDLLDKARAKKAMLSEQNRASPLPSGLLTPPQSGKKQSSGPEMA
# Method: as §1
# BRSK2 = target: T16, BRSK2 (Homo sapiens, UniProt Q8IWQ3)
# T16 construct: purchased Reaction Biology Corp
# Method: as §1
# LCK = target: T17, LCK (Homo sapiens, UniProt P06239)
# T17 construct: purchased Reaction Biology Corp
# Method: as §1
# PRKD2 = target: T18, PRKD2 (Homo sapiens, UniProt Q9BZL6)
# T18 construct: purchased Reaction Biology Corp
# T18 sequence (Q9BZL6 whole entry): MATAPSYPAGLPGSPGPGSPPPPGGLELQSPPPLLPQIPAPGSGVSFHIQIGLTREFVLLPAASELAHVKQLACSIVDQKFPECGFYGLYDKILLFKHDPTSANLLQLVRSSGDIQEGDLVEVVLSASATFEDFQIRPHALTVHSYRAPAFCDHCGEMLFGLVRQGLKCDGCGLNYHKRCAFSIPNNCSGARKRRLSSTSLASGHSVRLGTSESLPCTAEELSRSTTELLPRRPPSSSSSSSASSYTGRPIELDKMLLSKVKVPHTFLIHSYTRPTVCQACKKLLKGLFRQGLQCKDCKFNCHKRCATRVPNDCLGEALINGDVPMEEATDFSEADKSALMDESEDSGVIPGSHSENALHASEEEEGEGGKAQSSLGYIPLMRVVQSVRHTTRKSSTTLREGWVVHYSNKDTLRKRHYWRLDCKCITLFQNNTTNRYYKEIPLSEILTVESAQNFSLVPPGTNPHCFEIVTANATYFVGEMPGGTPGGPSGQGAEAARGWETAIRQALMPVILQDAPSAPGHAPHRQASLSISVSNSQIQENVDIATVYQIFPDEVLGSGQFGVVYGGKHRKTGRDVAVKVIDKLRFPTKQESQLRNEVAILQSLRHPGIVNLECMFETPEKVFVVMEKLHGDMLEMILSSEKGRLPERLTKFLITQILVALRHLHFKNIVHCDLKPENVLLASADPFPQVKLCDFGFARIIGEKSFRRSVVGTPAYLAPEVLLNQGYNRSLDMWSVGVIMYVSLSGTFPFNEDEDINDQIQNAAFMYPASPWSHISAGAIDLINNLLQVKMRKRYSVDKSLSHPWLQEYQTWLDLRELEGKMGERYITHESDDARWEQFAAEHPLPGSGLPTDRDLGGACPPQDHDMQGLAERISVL
# Method: as §1
# PAK1 = target: T19, PAK1 (Homo sapiens, UniProt Q13153)
# T19 construct: purchased Reaction Biology Corp
# Method: as §1
# PDPK1 = target: T20, PDPK1 (Homo sapiens, UniProt O15530)
# T20 construct: purchased Reaction Biology Corp
# Method: as §1
# CSNK1D = target: T21, CSNK1D (Homo sapiens, UniProt P48730)
# T21 construct: purchased Reaction Biology Corp
# Method: as §1
# BRSK1 = target: T22, BRSK1 (Homo sapiens, UniProt Q8TDC3)
# T22 construct: purchased Reaction Biology Corp
# Method: as §1
# TAK1 = target: T23, TAK1 (Homo sapiens, UniProt O43318)
# T23 construct: purchased Reaction Biology Corp
# Method: as §1
# MAP4K3 = target: T24, MAP4K3 (Homo sapiens, UniProt Q8IVH8)
# T24 construct: purchased Reaction Biology Corp
# Method: as §1
# HCK = target: T25, HCK (Homo sapiens, UniProt P08631)
# T25 construct: purchased Reaction Biology Corp
# Method: as §1
# DYRK4 = target: T26, DYRK4 (Homo sapiens, UniProt Q9NR20)
# T26 construct: purchased Reaction Biology Corp
# Method: as §1
# EPHA1 = target: T27, EPHA1 (Homo sapiens, UniProt P21709)
# T27 construct: purchased Reaction Biology Corp
# T27 sequence (P21709 26-976): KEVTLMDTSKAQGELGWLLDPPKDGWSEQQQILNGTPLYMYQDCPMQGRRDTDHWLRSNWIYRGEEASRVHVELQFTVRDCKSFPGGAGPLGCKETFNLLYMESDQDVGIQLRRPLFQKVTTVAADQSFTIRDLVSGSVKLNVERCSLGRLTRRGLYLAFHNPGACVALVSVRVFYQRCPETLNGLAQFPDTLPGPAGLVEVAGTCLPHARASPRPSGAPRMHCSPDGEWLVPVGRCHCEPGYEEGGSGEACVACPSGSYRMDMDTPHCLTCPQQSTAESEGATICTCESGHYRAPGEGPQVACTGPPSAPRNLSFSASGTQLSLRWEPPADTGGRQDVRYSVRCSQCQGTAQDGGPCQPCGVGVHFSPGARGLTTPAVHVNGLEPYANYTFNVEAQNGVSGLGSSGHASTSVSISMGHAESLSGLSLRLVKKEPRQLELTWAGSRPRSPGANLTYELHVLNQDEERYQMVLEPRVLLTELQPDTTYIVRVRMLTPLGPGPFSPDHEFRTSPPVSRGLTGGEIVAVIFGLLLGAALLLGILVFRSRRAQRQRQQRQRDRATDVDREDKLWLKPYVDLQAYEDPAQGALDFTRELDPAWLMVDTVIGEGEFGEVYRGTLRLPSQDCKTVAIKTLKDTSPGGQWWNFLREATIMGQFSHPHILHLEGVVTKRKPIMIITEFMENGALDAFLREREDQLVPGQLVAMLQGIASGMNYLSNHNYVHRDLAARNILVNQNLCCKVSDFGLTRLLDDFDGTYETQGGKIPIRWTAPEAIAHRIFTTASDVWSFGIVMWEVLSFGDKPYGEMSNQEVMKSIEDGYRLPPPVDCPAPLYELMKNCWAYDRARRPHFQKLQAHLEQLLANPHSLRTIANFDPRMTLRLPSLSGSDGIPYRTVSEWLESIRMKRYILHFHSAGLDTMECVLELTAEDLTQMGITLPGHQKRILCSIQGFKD
# Method: as §1
# CSNK1G2 = target: T28, CSNK1G2 (Homo sapiens, UniProt P78368)
# T28 construct: purchased Reaction Biology Corp
# Method: as §1
# MAP4K2 = target: T29, MAP4K2 (Homo sapiens, UniProt Q12851)
# T29 construct: purchased Reaction Biology Corp
# Method: as §1
# MNK2 = target: T30, MNK2 (Homo sapiens, UniProt Q9HBH9)
# T30 construct: purchased Reaction Biology Corp
# T30 sequence (Q9HBH9 whole entry): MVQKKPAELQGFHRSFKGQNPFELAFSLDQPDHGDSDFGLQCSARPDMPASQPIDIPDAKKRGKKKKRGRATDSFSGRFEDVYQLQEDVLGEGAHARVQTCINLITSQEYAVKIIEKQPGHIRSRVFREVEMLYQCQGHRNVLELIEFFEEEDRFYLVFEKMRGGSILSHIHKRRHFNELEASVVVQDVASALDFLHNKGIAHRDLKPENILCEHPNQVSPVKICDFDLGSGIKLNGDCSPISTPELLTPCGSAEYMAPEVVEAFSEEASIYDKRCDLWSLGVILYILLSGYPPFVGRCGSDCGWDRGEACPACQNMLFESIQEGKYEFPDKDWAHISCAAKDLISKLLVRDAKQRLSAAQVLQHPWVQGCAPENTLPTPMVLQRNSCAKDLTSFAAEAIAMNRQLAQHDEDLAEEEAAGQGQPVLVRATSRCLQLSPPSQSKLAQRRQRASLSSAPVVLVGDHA
# Method: as §1
# CSNK1A1L = target: T31, CSNK1A1L (Homo sapiens, UniProt Q8N752)
# T31 construct: purchased Reaction Biology Corp
# Method: as §1
# EPHB1 = target: T32, EPHB1 (Homo sapiens, UniProt P54762)
# T32 construct: purchased Reaction Biology Corp
# Method: as §1
# MAST3 = target: T33, MAST3 (Homo sapiens, UniProt O60307)
# T33 construct: purchased Reaction Biology Corp
# Method: as §1
# CDK16 = target: T34, CDK16 (Homo sapiens, UniProt Q00536)
# T34 construct: purchased Reaction Biology Corp
# Method: as §1
# TYK2 = target: T35, TYK2 (Homo sapiens, UniProt P29597)
# T35 construct: purchased Reaction Biology Corp
# Method: as §1
# Src = target: T36, Src (Homo sapiens, UniProt P12931)
# T36 construct: purchased Reaction Biology Corp
# Method: as §1
# CTK = target: T37, CTK (Homo sapiens, UniProt P42679)
# T37 construct: purchased Reaction Biology Corp
# Method: as §1
# ABL2 = target: T38, ABL2 (Homo sapiens, UniProt P42684)
# T38 construct: purchased Reaction Biology Corp
# Method: as §1
# ICK = target: T39, ICK (Homo sapiens, UniProt Q9UPZ9)
# T39 construct: purchased Reaction Biology Corp
# Method: as §1
# DYRK2 = target: T40, DYRK2 (Homo sapiens, UniProt Q92630)
# T40 construct: purchased Reaction Biology Corp
# Method: as §1
# ACVR1 = target: T41, ACVR1 (Homo sapiens, UniProt Q04771)
# T41 construct: purchased Reaction Biology Corp
# T41 sequence (Q04771 21-509): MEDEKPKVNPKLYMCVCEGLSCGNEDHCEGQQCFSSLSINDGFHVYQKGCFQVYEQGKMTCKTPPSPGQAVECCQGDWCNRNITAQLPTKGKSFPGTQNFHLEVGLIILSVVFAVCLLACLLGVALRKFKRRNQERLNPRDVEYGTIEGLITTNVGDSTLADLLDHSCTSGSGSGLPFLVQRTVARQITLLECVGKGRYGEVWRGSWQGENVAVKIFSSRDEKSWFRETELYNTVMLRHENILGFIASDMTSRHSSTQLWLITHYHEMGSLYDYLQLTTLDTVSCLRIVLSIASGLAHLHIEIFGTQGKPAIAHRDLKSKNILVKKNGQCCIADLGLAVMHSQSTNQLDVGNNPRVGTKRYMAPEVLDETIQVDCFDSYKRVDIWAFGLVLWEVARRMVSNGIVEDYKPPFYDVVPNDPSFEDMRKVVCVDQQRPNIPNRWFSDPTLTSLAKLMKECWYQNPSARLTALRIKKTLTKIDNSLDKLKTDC
# Method: as §1
# ULK1 = target: T42, ULK1 (Homo sapiens, UniProt O75385)
# T42 construct: purchased Reaction Biology Corp
# Method: as §1
# ERN1 = target: T43, ERN1 (Homo sapiens, UniProt O75460)
# T43 construct: purchased Reaction Biology Corp
# Method: as §1
structure (smiles),measurement,setting,value
"CCn1cnc2c(NCc3ccc(-c4ccccn4)nc3)nc(-c3ccc(N)nc3)nc21 [Compound 30d, N-([2,2′-Bipyridin]-5-ylmethyl)-2-(6-aminopyridin-3-yl)-9-ethyl-9H-purin-6-amine]",remaining activity at 10 µM,WNK2,108%
same,inhibition at 10 µM,CDK2/cyclinA,> 95%
same,remaining activity at 10 µM,CDK2/cyclinA,1.2%
same,remaining activity at 10 µM,NDR1,28.3%
same,remaining activity at 10 µM,DAPK1,99.7%
same,remaining activity at 10 µM,LIMK1,59.9%
same,remaining activity at 10 µM,KSR1,100%
same,remaining activity at 10 µM,RSK2,69.4%
same,remaining activity at 10 µM,PRKD3,54.3%
same,remaining activity at 10 µM,CSNK1E,22.9%
same,remaining activity at 10 µM,CAMK1b,66.8%
same,remaining activity at 10 µM,TBK1,55%
same,remaining activity at 10 µM,SNRK,93%
same,remaining activity at 10 µM,TEC,71.5%
same,remaining activity at 10 µM,GRK7,49.7%
same,inhibition at 10 µM,CDK3/cyclinE,> 95%
same,remaining activity at 10 µM,CDK3/cyclinE,1%
same,remaining activity at 10 µM,BRSK2,97.5%
same,remaining activity at 10 µM,LCK,83.6%
same,remaining activity at 10 µM,PRKD2,72.3%
same,remaining activity at 10 µM,PAK1,24.5%
same,remaining activity at 10 µM,PDPK1,105%
same,remaining activity at 10 µM,CSNK1D,10.2%
same,remaining activity at 10 µM,BRSK1,92.8%
same,remaining activity at 10 µM,TAK1,98.2%
same,remaining activity at 10 µM,MAP4K3,49.6%
same,remaining activity at 10 µM,HCK,46.5%
same,remaining activity at 10 µM,DYRK4,89.3%
same,remaining activity at 10 µM,EPHA1,13.2%
same,remaining activity at 10 µM,CSNK1G2,27%
same,remaining activity at 10 µM,MAP4K2,58.4%
same,remaining activity at 10 µM,MNK2,91.2%
same,remaining activity at 10 µM,CSNK1A1L,53.1%
same,remaining activity at 10 µM,EPHB1,13.6%
same,remaining activity at 10 µM,MAST3,39.3%
same,remaining activity at 10 µM,CDK16,17.5%
same,remaining activity at 10 µM,TYK2,90.7%
same,remaining activity at 10 µM,Src,60.1%
same,remaining activity at 10 µM,CTK,87.6%
same,remaining activity at 10 µM,ABL2,56.1%
same,remaining activity at 10 µM,ICK,39.6%
same,remaining activity at 10 µM,DYRK2,22.3%
same,remaining activity at 10 µM,ACVR1,118%
same,remaining activity at 10 µM,ULK1,70.3%
same,remaining activity at 10 µM,ERN1,50.8%

# Source: paper PMC9506414, “Novel 2,6,9-Trisubstituted Purines as Potent CDK Inhibitors Alleviating Trastuzumab-Resistance of HER2-Positive Breast Cancers” (Pharmaceuticals, 2022)
